According to ChEMBL document CHEMBL1201862, “PubChem BioAssay data set” (2004):
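Where inhibition never reached the appropriate level, the endpoint shown equals the highest concentration tested. Otherwise, values were interpolated linearly from a five-concentration, 48-hour dose response in 96-well plates. At the GI50, growth is halved.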 Activity calls are given as the source filed them. Cut-off read from the data, not from the text of the source: active = GI50 up to about 1.1 µM and inactive = higher.

What was measured:
Experiment in all cases: DTP human tumour cell line panel, 48 h
HOP-62 = system: HOP-62
TK-10 = system: TK-10
HT-29 = system: HT-29
OVCAR-8 = system: OVCAR-8
DMS-273 = system: DMS-273
SN12C = system: SN12C
CAKI-1 = system: CAKI-1
A498 = system: A498
IGROV-1 = system: IGROV-1
K562 = system: K562
EKVX = system: EKVX
OVCAR-5 = system: OVCAR-5
SK-MEL-28 = system: SK-MEL-28
SR = system: SR
SNB-78 = system: SNB-78
HCC 2998 = system: HCC 2998
KM12 = system: KM12
RPMI-8226 = system: RPMI-8226
MOLT-4 = system: MOLT-4
U-251 = system: U-251
M19-MEL = system: M19-MEL
SK-OV-3 = system: SK-OV-3
SW-620 = system: SW-620
SF-295 = system: SF-295
HCT-15 = system: HCT-15
RXF 631 = system: RXF 631
NCI-H460 = system: NCI-H460
ACHN = system: ACHN
M14 = system: M14
SK-MEL-5 = system: SK-MEL-5
SNB-75 = system: SNB-75
SK-MEL-2 = system: SK-MEL-2
UACC-257 = system: UACC-257
SNB-19 = system: SNB-19
HOP-92 = system: HOP-92
Malme-3M = system: Malme-3M
UACC-62 = system: UACC-62
XF498 = system: XF498
HCT-116 = system: HCT-116
786-0 = system: 786-0
OVCAR-3 = system: OVCAR-3
COLO 205 = system: COLO 205
KM-20L2 = system: KM-20L2
LXFL 529 = system: LXFL 529
DLD-1 = system: DLD-1
OVCAR-4 = system: OVCAR-4
CCRF-CEM = system: CCRF-CEM
NCI-H522 = system: NCI-H522
HOP-18 = system: HOP-18
NCI-H226 = system: NCI-H226
SF-539 = system: SF-539
A549 = system: A549
SF-268 = system: SF-268
HL-60 = system: HL-60
UO-31 = system: UO-31
NCI-H23 = system: NCI-H23

O=C(CCC(=O)C1CCC/C1=N/O)Nc1ccc(Cl)cc1 (stereo unspecified)
GI50 (HOP-62): > 100 µM (inactive)
GI50 (TK-10): > 100 µM (inactive)
GI50 (HT-29): > 100 µM (inactive)
GI50 (OVCAR-8): > 100 µM (inactive)
GI50 (DMS-273): > 100 µM (inactive)
GI50 (SN12C): > 100 µM (inactive)
GI50 (CAKI-1): > 100 µM (inactive)
GI50 (A498): > 100 µM (inactive)
GI50 (IGROV-1): > 100 µM (inactive)
GI50 (K562): > 100 µM (inactive)
GI50 (EKVX): > 100 µM (inactive)
GI50 (OVCAR-5): > 100 µM (inactive)
GI50 (SK-MEL-28): > 100 µM (inactive)
GI50 (SR): > 100 µM (inactive)
GI50 (SNB-78): > 100 µM (inactive)
GI50 (HCC 2998): > 100 µM (inactive)
GI50 (KM12): > 100 µM (inactive)
GI50 (RPMI-8226): > 100 µM (inactive)
GI50 (MOLT-4): > 100 µM (inactive)
GI50 (U-251): > 100 µM (inactive)
GI50 (M19-MEL): > 100 µM (inactive)
GI50 (SK-OV-3): > 100 µM (inactive)
GI50 (SW-620): > 100 µM (inactive)
GI50 (SF-295): > 100 µM (inactive)
GI50 (HCT-15): > 100 µM
GI50 (RXF 631): > 100 µM (inactive)
GI50 (NCI-H460): > 100 µM (inactive)
GI50 (ACHN): > 100 µM (inactive)
GI50 (M14): > 100 µM (inactive)
GI50 (SK-MEL-5): > 100 µM (inactive)
GI50 (SNB-75): 74.5 µM (inactive)
GI50 (SK-MEL-2): > 100 µM (inactive)
GI50 (UACC-257): > 100 µM (inactive)
GI50 (SNB-19): > 100 µM (inactive)
GI50 (HOP-92): > 100 µM (inactive)
GI50 (Malme-3M): > 100 µM (inactive)
GI50 (UACC-62): > 100 µM (inactive)
GI50 (XF498): > 100 µM (inactive)
GI50 (HCT-116): > 100 µM (inactive)
GI50 (786-0): > 100 µM (inactive)
GI50 (OVCAR-3): > 100 µM (inactive)
GI50 (COLO 205): > 100 µM (inactive)
GI50 (KM-20L2): > 100 µM (inactive)
GI50 (LXFL 529): > 100 µM (inactive)
GI50 (DLD-1): > 100 µM (inactive)
GI50 (OVCAR-4): > 100 µM (inactive)
GI50 (CCRF-CEM): > 100 µM (inactive)
GI50 (NCI-H522): > 100 µM (inactive)
GI50 (HOP-18): > 100 µM (inactive)
GI50 (NCI-H226): > 100 µM (inactive)
GI50 (SF-539): > 100 µM (inactive)
GI50 (A549): > 100 µM (inactive)
GI50 (SF-268): > 100 µM (inactive)
GI50 (HL-60): > 100 µM (inactive)
GI50 (UO-31): > 100 µM (inactive)
GI50 (NCI-H23): > 100 µM (inactive)
